Blank lines part the entries; values can stand above or below the molecule they belong to.
Key:
[1] = pH stability of pantethine-4′,4″-diphosphate, pantethine-4′-phosphate and pantethine (Example 2); assay type: physicochemical; conditions: pH 4 or lower, or pH 7 or higher; 0.1% (w/v) in 50 mM buffer, 40° C. for 3 months; diphosphate tested as sodium salt
[2] = pH stability of barium pantethine-4′,4″-diphosphate, pantethine and calcium pantetheine-5-sulfonate (Example 1); conditions: 0.1% (w/v) in 50 mM buffer, 40° C. for 6 months, diphosphate tested as barium salt
Text: Sodium citrate buffer solutions were used as buffer solutions at pH 3, 4, 5 and 6. Sodium phosphate buffer solutions were used as buffer solutions at pH 6.5 and 7. Tris-HCl buffer solutions were used as buffer solutions at pH 8 and 9.5.

[3] = tested on: LabCyte MELANO-MODEL, human skin three-dimensional model containing melanocytes; assay: Melanin production inhibition test in human skin three-dimensional model; assay type: cell-based; conditions: for IC50: read-out: concentration at which melanin production inhibition rate reaches 50%, from plots in FIG. 5, kojic acid 0.1% = 100% inhibition, PBS = 0%
Protocol: The culture medium and the applied sample solution were exchanged every 2 or 3 days. After the completion of the culture, the percentage of viable cells was measured by an MTT (methylthiazole tetrazolium) assay. Further, a melanin amount was measured.
Melanin amount: The skin cells after the MTT assay were immersed in a reagent obtained by dissolving 1% SDS, 0.05 mM EDTA, and a 10 mM tris-HCl buffer solution (pH 7.2). 3 μL of a 5 mg/mL Proteinase K was added and the solution was heated in a water bath at 45° C. overnight to dissolve the skin. A 30% hydrogen peroxide solution and a 500 mM sodium carbonate solution were added thereto, the solution was mixed well and heated in a water bath at 80° C. for 30 min, and impurities were removed by chloroform/methanol (2/1). At the same time, melanin solutions were prepared by similar operations to prepare a calibration curve, and a melanin amount in the cultured skin cells was determined.

[4] = Stability of pantetheine-4′-phosphate, pantetheine and pantethine (Example 4); conditions: 40° C. for 1 month; for amount of disulfide produced from the compound: alkaline condition (pH 8 and pH 9.5)
Protocol: Fifty mM sodium citrate buffer solutions (pH 3, 4, 5, and 6), a 50 mM sodium phosphate buffer solution (pH 7), and 50 mM tris-HCl buffer solutions (pH 8, 9.5) containing 0.1% (w/v) of pantetheine-4′-phosphate were prepared. Each 0.4 mL of the solutions was encapsulated in a 1 mL-glass ampule and heated at 40° C. for 1 month. Samples before and after the heating were analyzed by an HPLC to measure the content of pantetheine-4′-phosphate.

[5] = ratio of 50% inhibition concentrations

stability (content by HPLC before and after heating) [1]: stable
Molecule: CC(C)(COP(=O)(O)O)[C@@H](O)C(=O)NCCC(=O)NCCSSCCNC(=O)CCNC(=O)[C@H](O)C(C)(C)COP(=O)(O)O [Pantethine-4′,4″-diphosphate, pantethine-4′,4″-diphosphate]

stability (content by HPLC before and after heating) ([2]; between pH 5 and 6): stable
stability (content by HPLC before and after heating) ([2]; pH 4 or lower, or pH 6.5 or higher): clearly degraded
Molecule: CC(C)(CO)[C@@H](O)C(=O)NCCC(=O)NCCSS(=O)(=O)[O-].CC(C)(CO)[C@@H](O)C(=O)NCCC(=O)NCCSS(=O)(=O)[O-].[Ca+2] [calcium pantetheine-5-sulfonate]

Molecule: O=c1cc(CO)occ1O [kojic acid]
melanin production amount, relative to the case where only PBS was added ([3]; 0.1% (7 mM), culture for 2 weeks): 30%

amount of disulfide produced from the compound [4]: did not decrease
stability (content by HPLC before and after heating) ([4]; pH 3 and 4, 0.1% (w/v) in 50 mM buffer): improved from pantetheine
Molecule: CC(C)(COP(=O)(O)O)[C@@H](O)C(=O)NCCC(=O)NCCS [pantetheine-4′-phosphate]
stability: oxidation to the disulfide ([4]; pH 5 or higher, 0.1% (w/v) in 50 mM buffer): oxidized and changed to pantethine-4′,4″-diphosphate
stability: remaining compound ([4]; pH 7 or higher, 0.1% (w/v) in 50 mM buffer): neither the pantetheine-4′-phosphate nor pantetheine remained

Molecule: CC(C)(CO)[C@@H](O)C(=O)NCCC(=O)NCCS [pantetheine]
amount of disulfide produced from the compound [4]: decrease in the amount of pantethine produced

IC50 ([3]; culture for 2 weeks): 54 mM
Molecule: O=C1O[C@H]([C@@H](O)CO)C(O)=C1OP(=O)(O)O [sodium ascorbyl-2-phosphate]

IC50 ([3]; culture for 2 weeks): 77 mM
Molecule: pantethine-4′,4″-di-β-galactoside

IC50 ([3]; culture for 2 weeks): 3.1 mM
Molecule: sodium pantethine-4′,4″-diphosphate
whitening activity relative to pantethine [3, 5]: 1.7 fold
whitening activity relative to sodium ascorbyl-2-phosphate [3, 5]: 17 times

— patent US20120189566A1 (DAIICHI FINE CHEMICAL CO., LTD., priority 2009, published 2012)
